The results in this text go back to the Kinase Knowledgebase extract (Sharma et al. 2016).

A value given as a limit tells only on which side of the number the result lay.

In experiment [1] the target is MAPK14 (human) (UniProt Q16539). The experiment can be described thus: Inhibition of MAPK14 Kinase Activity by PHAS-I Assay. The settings on record: for inhibition: concentration not given here.
Experiment [2] has the same target. Put plainly: Inhibition of LPS Stimulated TNF Production by U937 Cells. The following applies: for inhibition: concentration not given here.

MAPK14 (human), sequence (Q16539 whole entry, looked up): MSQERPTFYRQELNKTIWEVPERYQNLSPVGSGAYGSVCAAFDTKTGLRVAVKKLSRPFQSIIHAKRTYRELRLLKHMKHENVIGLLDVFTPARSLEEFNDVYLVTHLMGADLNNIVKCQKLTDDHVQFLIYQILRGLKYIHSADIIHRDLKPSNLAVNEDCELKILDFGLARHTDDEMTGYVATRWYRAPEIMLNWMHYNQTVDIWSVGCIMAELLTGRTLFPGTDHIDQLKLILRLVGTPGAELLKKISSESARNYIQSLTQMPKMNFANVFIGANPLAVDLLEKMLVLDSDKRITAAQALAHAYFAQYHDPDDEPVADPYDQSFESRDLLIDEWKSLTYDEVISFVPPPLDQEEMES

As to `CCOC(=O)CCNC(=O)NCCc1[nH]nc(-c2ccc(F)cc2)c1-c1ccncc1`, the inhibition is 69% at MAPK14 (human) [1] and 34% against MAPK14 (human) [2].
Regarding `COc1ccc2[nH]c3c(c2c1)CCN(C(=O)Cn1nc(-c2ccc(F)cc2)c(-c2ccncc2)c1C)C3`, the inhibition at MAPK14 (human) [1] is 39%; on MAPK14 (human) [2], 10%.
As for `CSc1cccc(NC(=O)NCCc2[nH]nc(-c3ccc(F)cc3)c2-c2ccncc2)c1`, the values for the inhibition on MAPK14 (human) [1] and against MAPK14 (human) [2] were 47% and 37%, respectively.
In the case of `N#Cc1ccc(C(=O)NCc2[nH]nc(-c3ccc(F)cc3)c2-c2ccncc2)cc1`, the inhibition was 53% at MAPK14 (human) [1] and 40% against MAPK14 (human) [2].
On to `CN1CCN(CCCNC(=O)NCCCc2[nH]nc(-c3ccc(F)cc3)c2-c2ccncc2)CC1`, for which the IC50 on MAPK14 (human) [1] was 91 nM; against MAPK14 (human) [2], more than 1 µM.
Turning to `CCN(Cc1ccncc1)C(=O)Cn1nc(-c2ccc(F)cc2)c(-c2ccncc2)c1C`, the inhibition against MAPK14 (human) [1] is 68%; against MAPK14 (human) [2] it was 2%.
On the same counts, the results for `CCOC(=O)NC(=O)NCc1[nH]nc(-c2ccc(F)cc2)c1-c1ccncc1` are 51% and 24%.
With `Cc1cccc(OC(=O)c2ccc(NC(=O)Cn3nc(-c4ccc(F)cc4)c(-c4ccncc4)c3C)cc2)c1`, the inhibition turned out to be 89% against MAPK14 (human) [1] and 7% against MAPK14 (human) [2].
For `Cc1c(-c2ccncc2)c(-c2ccc(F)cc2)nn1CC(=O)NC(C)Cc1c[nH]c2ccccc12` (configuration not stated), the inhibition amounted to 65% against MAPK14 (human) [1] and 28% on MAPK14 (human) [2].
For `O=C(NCCc1[nH]nc(-c2ccc(F)cc2)c1-c1ccncc1)c1ccc(F)c(F)c1F` the same measures were 69% and 22%.
For `O=S(=O)(NCCc1[nH]nc(-c2ccc(F)cc2)c1-c1ccncc1)c1ccc(Cl)c(Cl)c1`, the IC50 on MAPK14 (human) [1] was determined as 330 nM. For the same compound, at MAPK14 (human) [2], the inhibition is 36%.
For the compound `O=C(NCCc1[nH]nc(-c2ccc(F)cc2)c1-c1ccncc1)C1CCCC1`, the inhibition at MAPK14 (human) [1] was found to be 79%; against MAPK14 (human) [2], 45%.
On the same counts, the results for `COCC(=O)NCCc1[nH]nc(-c2ccc(F)cc2)c1-c1ccncc1` are 55% and 43%.
Turning to `Cc1cc(Cl)ccc1OCC1SCCN1C(=O)Cn1nc(-c2ccc(F)cc2)c(-c2ccncc2)c1C` (configuration not stated), at MAPK14 (human) [1], the inhibition was 47%. This compound also gave an IC50 at MAPK14 (human) [2] of more than 10 µM.
With `O=S(=O)(NCc1[nH]nc(-c2ccc(F)cc2)c1-c1ccncc1)c1cc2nnoc2c2ccccc12`, the inhibition on MAPK14 (human) [1] stood at 50%; on MAPK14 (human) [2], 32%.
On MAPK14 (human) [1], `CNC(=O)CC[C@H](NC(C)=O)c1[nH]nc(-c2ccc(F)cc2)c1-c1ccncc1` registered an IC50 of 660 nM. This compound displayed an inhibition against MAPK14 (human) [2] of 46%.
Turning to `COC(=O)c1ccccc1NC(=O)NCCc1[nH]nc(-c2ccc(F)cc2)c1-c1ccncc1`, the inhibition was 76% on MAPK14 (human) [1] and 31% at MAPK14 (human) [2].
Regarding `C[C@H](NS(=O)(=O)c1ccccc1C#N)c1[nH]nc(-c2ccc(F)cc2)c1-c1ccncc1`, the IC50 at MAPK14 (human) [1] turned out to be 250 nM. This compound gave an inhibition against MAPK14 (human) [2] of 69%.
In the case of `CC1(C)[C@@H]2CC[C@]1(CCS(=O)(=O)NCc1[nH]nc(-c3ccc(F)cc3)c1-c1ccncc1)C(=O)C2`, the IC50 at MAPK14 (human) [1] is 45 nM. The compound further yielded an inhibition at MAPK14 (human) [2] of 1%.
Consider `O=C(NCCc1[nH]nc(-c2ccc(F)cc2)c1-c1ccncc1)c1ccc(I)cc1`, for which the inhibition is 58% against MAPK14 (human) [1] and 33% against MAPK14 (human) [2].
For `CC(C)c1ccc(NC(=O)NCCc2[nH]nc(-c3ccc(F)cc3)c2-c2ccncc2)cc1` the same measures were 50% and 5%.
Turning to `CN(C)C(=O)NCc1[nH]nc(-c2ccc(F)cc2)c1-c1ccncc1`, the IC50 against MAPK14 (human) [1] worked out at 110 nM. In addition, the inhibition at MAPK14 (human) [2] was found to be 51%.
As to `CCOC(=O)C(CC(C)C)NC(=O)C(=O)NCCc1[nH]nc(-c2ccc(F)cc2)c1-c1ccncc1` (configuration not stated), the inhibition against MAPK14 (human) [1] was 60%; against MAPK14 (human) [2] it was 26%.
As for `C[C@H](NS(=O)(=O)[C@]12CC[C@@H](CC1=O)C2(C)C)c1[nH]nc(-c2ccc(F)cc2)c1-c1ccncc1`, the IC50 against MAPK14 (human) [1] came to 830 nM. Besides, on MAPK14 (human) [2], the inhibition was 39%.
With `CNC(=O)NCCc1[nH]nc(-c2ccc(F)cc2)c1-c1ccncc1`, the inhibition against MAPK14 (human) [1] and against MAPK14 (human) [2] was 68% in each case.
`CN(C(=O)NCc1[nH]nc(-c2ccc(F)cc2)c1-c1ccncc1)c1ccccc1` registered an IC50 at MAPK14 (human) [1] of 530 nM. Also, the inhibition against MAPK14 (human) [2] came to 18%.
In the case of `Cc1c(-c2ccncc2)c(-c2ccc(F)cc2)nn1CC(=O)N(C)CC(=O)N(C)C`, the inhibition at MAPK14 (human) [1] came to 40%; on MAPK14 (human) [2], 31%.
For `O=C(NCCc1[nH]nc(-c2ccc(F)cc2)c1-c1ccncc1)c1ccno1` the same measures were 77% and 45%.
On the same counts, the results for `CC(NC(=O)NCCc1[nH]nc(-c2ccc(F)cc2)c1-c1ccncc1)c1cccc2ccccc12` (configuration not stated) are 85% and 2%.
For `CCOC(=O)NC(=O)NCCc1[nH]nc(-c2ccc(F)cc2)c1-c1ccncc1` the same measures were 56% and 22%.
Take `O=C(NCCc1[nH]nc(-c2ccc(F)cc2)c1-c1ccncc1)N[C@@H]1C[C@@H]1c1ccccc1`: the inhibition on MAPK14 (human) [1] was determined as 81%; against MAPK14 (human) [2] it was 25%.

In general, inhibition refers to the relative decrease from the control value, in per cent. A higher inhibition goes with strong suppression. A word on the IC50: it is the point on the concentration scale where inhibition reaches its midpoint.
